Test results from ChEMBL document CHEMBL1765079, “Syntheses of 2-deoxy-2,3-didehydro-N-acetylneuraminic acid analogues modified by N-sulfonylamidino groups at the C-4 position and biological evaluation as inhibitors of human parainfluenza virus type 1” (Bioorg Med Chem, 2011).

Molecular target: T1, Hemagglutinin-neuraminidase (Human parainfluenza virus 1, UniProt Q06992)
T1 sequence (Q06992 whole entry): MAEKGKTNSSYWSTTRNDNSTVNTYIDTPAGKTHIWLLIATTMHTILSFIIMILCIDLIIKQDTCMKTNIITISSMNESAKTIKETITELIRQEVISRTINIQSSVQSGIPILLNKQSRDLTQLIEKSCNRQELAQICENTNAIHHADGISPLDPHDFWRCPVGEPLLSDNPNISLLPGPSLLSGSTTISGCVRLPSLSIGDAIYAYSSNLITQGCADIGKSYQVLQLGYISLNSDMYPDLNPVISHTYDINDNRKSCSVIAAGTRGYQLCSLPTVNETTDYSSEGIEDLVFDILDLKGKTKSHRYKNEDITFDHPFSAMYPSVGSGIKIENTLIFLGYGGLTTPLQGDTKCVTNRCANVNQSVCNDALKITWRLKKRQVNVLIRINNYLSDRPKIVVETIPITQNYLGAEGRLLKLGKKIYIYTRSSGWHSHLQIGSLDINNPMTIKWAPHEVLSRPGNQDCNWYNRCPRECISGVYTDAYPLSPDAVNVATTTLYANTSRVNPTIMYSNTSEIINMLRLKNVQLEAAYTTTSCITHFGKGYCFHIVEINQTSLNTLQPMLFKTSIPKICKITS
Test: Inhibition of Human parainfluenza virus 1 sialidase using N-acetyl-alpha-neuramic acid by fluorometric assay
Set-up: species or system Human respirovirus 1

| SMILES | IC50 [µM] |
| --- | --- |
| CC(=O)N[C@H]1[C@H]([C@H](O)[C@H](O)CO)OC(C(=O)O)=C[C@@H]1OCCC(=Nc1ccccc1)NS(C)(=O)=O | 800 |
| CCN(CC)/C(CCO[C@H]1C=C(C(=O)O)O[C@@H]([C@H](O)[C@H](O)CO)[C@@H]1NC(C)=O)=N\S(=O)(=O)c1ccc(C)cc1 | 9100 |
| CC(=O)N[C@H]1[C@H]([C@H](O)[C@H](O)CO)OC(C(=O)O)=C[C@@H]1OCC/C(=N\S(=O)(=O)c1ccc(C)cc1)N(C(C)C)C(C)C | 4800 |
| CC(=O)N[C@H]1[C@H]([C@H](O)[C@H](O)CO)OC(C(=O)O)=C[C@@H]1N=C(Cc1cccs1)NS(C)(=O)=O | 2000 |
| CC(=O)NC1[C@H](C(O)[C@H](O)CO)OC(C(=O)O)=C[C@@H]1O (single isomer, unassigned) [NEU5AC2EN] | 300 |
| CC(=O)N[C@H]1[C@H]([C@H](O)[C@H](O)CO)OC(C(=O)O)=C[C@@H]1N=C(C)NS(C)(=O)=O | 16000 |
| CC(=O)N[C@H]1[C@H]([C@H](O)[C@H](O)CO)OC(C(=O)O)=C[C@@H]1N=C(Cc1ccccc1)NS(C)(=O)=O | 2100 |
| CCN(CC)/C(CCO[C@H]1C=C(C(=O)O)O[C@@H]([C@H](O)[C@H](O)CO)[C@@H]1NC(C)=O)=N/S(C)(=O)=O | 1500 |
| CC(=O)N[C@H]1[C@H]([C@H](O)[C@H](O)CO)OC(C(=O)O)=C[C@@H]1N=C(CC1=CCCCC1)NS(C)(=O)=O | 1500 |
| CCCc1ccc(C/C(=N/S(C)(=O)=O)N[C@H]2C=C(C(=O)O)O[C@@H]([C@H](O)[C@H](O)CO)[C@@H]2NC(C)=O)cc1 | 1600 |
| CC(=O)N[C@H]1[C@H]([C@H](O)[C@H](O)CO)OC(C(=O)O)=C[C@@H]1OCCC(=NC(C)C)NS(=O)(=O)c1ccc(C)cc1 | 7700 |
| CC(=O)N[C@H]1[C@H]([C@H](O)[C@H](O)CO)OC(C(=O)O)=C[C@@H]1N=C(Cc1ccc(F)cc1)NS(C)(=O)=O | 1600 |
